In patent publication US8409581B2, “Compounds for treating amyloidoses” (Affiris AG, priority 2008, dated 2013):

Key:
[1] = system: monoclonal antibody MV-002; experiment: In vitro binding assay (ELISA) of mimotopes to parental antibody; set-up: species or system mice; conditions: peptide coupled to BSA bound to ELISA plates (1 μM); parental antibody MV-002
Method: 1. In Vitro Binding Assay (ELISA)
Peptides derived from Phage Display as well as variants thereof were coupled to BSA and bound to ELISA plates (1 μM; as indicated in the respective figures) and subsequently incubated with the monoclonal antibody that was used for the screening procedure to analyse binding capacity of identified peptides.

[2] = system: monoclonal antibody MV-002 binding to the original epitope; experiment: In vitro inhibition assay (ELISA); set-up: species or system mice; conditions: for inhibition in in vitro inhibition/competition assay: MV-002, original epitope coated on ELISA plates; for Inhibition Capacity (competition code): OD at 5 ug peptide compared to original peptide, MV-002
Method: 2. In Vitro Inhibition Assay (ELISA)
Different amounts of peptides (concentrations ranging from 5 μg to 0.03 μg; serial dilutions), derived from Phage Display were incubated with the monoclonal antibody that was used for the screening procedure. Peptides diminishing subsequent binding of the antibody to the original epitope coated on ELISA plates were considered as inhibiting in this assay.

injected peptide = experiment: Mimotope vaccination of mice, serum titer ELISA against injected peptide; type: in vivo, C57/B16 mice; conditions: 30 μg peptide-KLH, alum, s.c., FIG. 4
Method: (§1) Inhibiting as well as non-inhibiting peptides were coupled to KLH and injected into mice (wildtype C57/B16 mice; subcutaneous injection into the flank) together with an appropriate adjuvant (aluminium hydroxide). Animals were vaccinated 3-6 times in biweekly intervals and sera were taken biweekly as well. Titers to injected peptides, as well as to an irrelevant peptide were determined with every serum. Furthermore, titers against the recombinant human Aβ protein, and against original peptides were determined respectively. In general sera were analysed by reaction against peptides coupled to Bovine Serum Albumin (BSA) and recombinant full length proteins which were immobilised on ELISA plates. Titers were determined using anti mouse IgG specific antibodies. For detailed results see FIGS. 4, 5 and 6 respectively.
(§2) Female C57/b16 mice, 5-6 mice per group, were subcutaneously immunized with 30 μg peptide coupled to KLH. Control groups were administered original epitope-KLH conjugates respectively. As adjuvant alum was used (always 1 mg per mouse). […] The in vitro ELISA assay to determine the antibody titer was performed with sera of single mice after each vaccination in a two week interval (see FIGS. 6 and 7 respectively). Titers were calculated as OD max/2 in all figures shown. The wells of the ELISA plate were coated with mimotope-BSA conjugate and an irrelevant peptide-BSA conjugate (negative control). The positive control was performed by reaction of the parental antibody with the respective mimotope-BSA conjugate. The detection was performed with anti-mouse IgG. Additionally, recombinant proteins were immobilised on ELISA plates and sera reacted accordingly. FIGS. 4, 5 and 6 show representative examples for assays used to characterise mimotopes in vivo.

[3] = system: p1454 (unrelated sequence); experiment: Mimotope vaccination of mice, serum titer ELISA against irrelevant peptide; type: in vivo, C57/B16 mice; conditions: 30 μg peptide-KLH, alum, s.c., FIG. 4
Method: as §1, §2

original epitope p4377 = experiment: Mimotope vaccination of mice, serum titer ELISA against original epitope; type: in vivo, C57/B16 mice; conditions: 30 μg peptide-KLH, alum, s.c., FIG. 5
Method: as §1, §2

[4] = system: amyloid plaques (Aβ40/42) in brain; experiment: Area occupied by amyloid plaques in Tg2576 AD mouse model; type: in vivo; conditions: Tg2576 mice

Sequence	Binding Capacity (binding code; OD halfmax 1:X, dilution factor of the parental AB) [1]	inhibition in in vitro inhibition/competition assay [2]	immune response against injected peptide (injected peptide)	unspecific immune response against unrelated sequence (p1454) [3]	immune response against the original epitope p4377 (original epitope p4377)	Inhibition Capacity (competition code) [2]	reduction of area occupied by amyloid plaques following mimotope treatment ([4]; group 2 versus PBS-ALUM control)	average area occupied by amyloid plaques ([4]; peptide-KLH conjugate adsorbed to ALUM, s.c. 6 times at monthly intervals, mAb 3A5 staining, control 0.35%)
SHTRLYFC [p4403, MV-002 mimotope peptide]	1 (weak binding :<40000)	without inhibition capacity	elicited immune responses	failed to induce a relevant unspecific immune response	mounted detectable immune responses			
HQKMIFAC [p4675, MV-002 mimotope peptide; used as KLH conjugate vaccine in Tg2576 mice]	3 (strong binding :>320000)	active in in vitro inhibition assays	elicited immune responses	failed to induce a relevant unspecific immune response	mounted detectable immune responses	2 (strong inhibition (as original epitope; OD of peptide below 2, 3 times of original peptide))	31%	0.24%
GEIWFEGC [p4680, MV-002 mimotope peptide]	3 (strong binding :>320000)	active in in vitro inhibition assays	elicited immune responses	failed to induce a relevant unspecific immune response	mounted detectable immune responses	2 (strong inhibition (as original epitope; OD of peptide below 2, 3 times of original peptide))		
